Results from patent US7834030B2, “Phenyl-[1,2,4]-oxadiazol-5-one derivatives, pharmaceutical compositions and therapeutic use thereof” (Sanofi-Aventis, priority 2005, dated 2010).
pEC50: −log10 of the molar value.

These compounds were tested against T1, human PPARdelta (Homo sapiens, UniProt Q03181) (assay: cellular PPARdelta assay (GAL4 luciferase reporter, stably transfected HEK cell line)).
T1 construct: human PPARdelta receptor (amino acids S139-Y441); expressed in transfected cells; plasmid pcDNA3
T1 sequence (Q03181 139-441): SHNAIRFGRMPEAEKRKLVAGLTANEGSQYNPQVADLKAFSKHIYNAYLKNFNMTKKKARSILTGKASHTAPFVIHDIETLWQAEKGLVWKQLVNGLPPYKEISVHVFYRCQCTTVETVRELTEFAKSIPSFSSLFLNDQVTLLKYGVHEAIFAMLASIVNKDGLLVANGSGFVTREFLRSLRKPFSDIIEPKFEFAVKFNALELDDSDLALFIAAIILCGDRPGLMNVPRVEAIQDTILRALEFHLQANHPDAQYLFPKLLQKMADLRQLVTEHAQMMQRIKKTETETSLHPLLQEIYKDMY
Type: cell-based
Protocol: The PPARalpha reporter cell line is cultivated to 80% confluence in DMEM (# 41965-039, Invitrogen) which is mixed with the following additions: 10% cs-FCS (fetal calf serum; #SH-30068.03, Hyclone), 0.5 mg/ml zeocin (#R250-01, Invitrogen), 0.5 mg/ml G418 (#10136-027, Invitrogen), 1% penicillin-streptomycin solution (#15140-122, Invitrogen) and 2 mM L-glutamine (#25030-024, Invitrogen). The cultivation takes place in standard cell culture bottles (# 353612, Becton Dickinson) in a cell culture incubator at 37° C. in the presence of 5% CO2. The 80%-confluent cells are washed once with 15 ml of PBS (#14190-094, Invitrogen), treated with 3 ml of trypsin solution (#25300-054, Invitrogen) at 37° C. for 2 min, taken up in 5 ml of the DMEM described and counted in a cell counter. After dilution to 500.000 cells/ml, 35,000 cells are seeded in each well of a 96 well microtiter plate with a clear plastic base (#3610, Corning Costar). The plates are incubated in the cell culture incubator at 37° C. and 5% CO2 for 24 h.
PPARalpha agonists to be tested are dissolved in DMSO in a concentration of 10 mM. This stock solution is diluted in DMEM (#41965-039, Invitrogen) which is mixed with 5% cs-FCS (#SH-30068.03, Hyclone), 2 mM L-glutamine (#25030-024, Invitrogen) and the previously described antibiotics (zeocin, G418, penicillin and streptomycin). Test substances are tested in 11 different concentrations in the range from 10 μM to 100 pM.
The medium of the PPARalpha reporter cell line seeded on day 1 is completely removed by aspiration, and the test substances diluted in medium are immediately added to the cells. The dilution and addition of the substances is carried out by a robot (Beckman FX). The final volume of the test substances diluted in medium is 100 μl per well of a 96 well microtiter plate. The DMSO concentration in the assay is less than 0.1% v/v in order to avoid cytotoxic effects of the solvent.
The PPARalpha reporter cells treated with the test substances are removed from the incubator, and the medium is aspirated off. The cells are lyzed by pipetting 50 μl of Bright Glo reagent (from Promega) into each well of a 96 well microtiter plate. After incubation at room temperature in the dark for 10 minutes, the microtiter plates are measured in the luminometer (Trilux from Wallac). The measuring time for each well of a microtiter plate is 1 sec.
The raw data from the luminometer are transferred into a Microsoft Excel file. Dose-effect plots and EC50 values of PPAR agonists are calculated using the XL.Fit program as specified by the manufacturer (IDBS). […] The compounds of the present invention of formula I activate the PPARalpha receptor.
The potency of substances which bind to human PPARdelta and activate it in an agonistic manner was analyzed using a stably transfected HEK cell line (HEK=human embryo kidney) which is referred to here as PPARdelta reporter cell line. In analogy to the assay described for PPARalpha, the PPARdelta reporter cell line also contains two genetic elements, a luciferase reporter element (pdeltaM-GAL4-Luc-Zeo) and a PPARdelta fusion protein (GR-GAL4-humanPPARdelta-LBD) which mediates expression of the luciferase reporter element depending on a PPARdelta ligand. The stably and constitutively expressed fusion protein GR-GAL4-humanPPARdelta-LBD binds in the cell nucleus of the PPARdelta reporter cell line via the GAL4 protein portion to the GAL4 DNA binding motifs 5′-upstream of the luciferase reporter element which is stably integrated in the genome of the cell line. There is only little expression of the luciferase reporter gene in the absence of a PPARdelta ligand if fatty acid-depleted fetal calf serum (cs-FCS) is used in the assay. PPARdelta ligands bind and activate the PPARdelta fusion protein and thereby stimulate expression of the luciferase reporter gene. The luciferase which is formed can be detected by means of chemiluminescence via an appropriate substrate. […]

| pEC50 | SMILES |
| --- | --- |
| 8.22 | Cc1nc(-c2ccc(C(F)(F)F)cc2)sc1C(Cc1ccccn1)Oc1ccc(-c2noc(=O)[nH]2)c(Cl)c1 (racemic) [Example 10, 3-(2-Chloro-4-{1-[4-methyl-2-(4-trifluoromethyl-phenyl)-thiazol-5-yl]-2-pyridin-2-yl-ethoxy}-phenyl)-4H-[1,2,4]oxadiazol-5-one] |
| 9.00 | CCC(Oc1ccc(-c2noc(=O)[nH]2)c(C2CC2)c1)c1sc(-c2ccc(C(F)(F)F)cc2)nc1C (racemic) [Example 16, 3-(2-Cyclopropyl-4-{1-[4-methyl-2-(4-trifluoromethyl-Phenyl)-thiazol-5-yl]-propoxy}-phenyl)-4H-[1,2,4]oxadiazol-5-one] |
| 9.00 | Cc1nc(-c2ccc(C(F)(F)F)cc2)sc1C(Oc1ccc(-c2noc(=O)[nH]2)c(Cl)c1)C(F)(F)F (racemic) [Example 20, 3-(2-Chloro-4-{2,2,2-trifluoro-1-[4-methyl-2-(4-trifluoromethyl-phenyl)-thiazol-5-yl]-ethoxy}-phenyl)-4H-[1,2,4]oxadiazol-5-one] |
| 9.30 | CCC(Oc1ccc(-c2noc(=O)[nH]2)c(OC(F)F)c1)c1sc(-c2ccc(C(F)(F)F)cc2)nc1C (racemic) [Example 37, 3-(2-Difluoromethoxy-4-{1-[4-methyl-2-(4-trifluoromethyl-phenyl)-thiazol-5-yl]-propoxy}-phenyl)-4H-1,2,4-oxadiazol-5-one] |
| 9.70 | CCC(Oc1ccc(-c2noc(=O)[nH]2)c(Cl)c1)c1sc(-c2ccc(C(F)(F)F)cc2)nc1C (racemic) [Example 4, 3-(2-Chloro-4-{1-[4-methyl-2-(4-trifluoromethyl-phenyl)-thiazol-5-yl]-propoxy}-phenyl)-4H-[1,2,4]oxadiazol-5-one] |
| 8.40 | CCC(Oc1ccc(-c2noc(=O)[nH]2)c(F)c1)c1sc(-c2ccc(C(F)(F)F)cc2)nc1C (racemic) [Example 35, 3-(2-Fluoro-4-{1-[4-methyl-2-(4-trifluoromethyl-phenyl)-thiazol-5-yl]-propoxy}-phenyl)-4H-1,2,4-oxadiazol-5-one] |

Further lines, the compound ahead of its results:

| SMILES | pEC50 |
| --- | --- |
| CCCCC(Cc1ccc(-c2noc(=O)[nH]2)c(F)c1)c1sc(-c2ccc(C(F)(F)F)cc2)nc1C (racemic) [Example 34, 3-(2-Fluoro-4-{2-[4-methyl-2-(4-trifluoromethyl-phenyl)-thiazol-5-yl]-hexyl}-phenyl)-4H-[1,2,4]oxadiazol-5-one] | 9.00 |
| CC[C@@H](Oc1cc(OC)c(-c2noc(=O)[nH]2)cc1F)c1sc(-c2ccc(C(F)(F)F)cc2)nc1C [(+)-40, (+)-3-(5-Fluoro-2-methoxy-4-{(R)-1-[4-methyl-2-(4-trifluoromethyl-phenyl)-thiazol-5-yl]-propoxy}-phenyl)-4H-1,2,4-oxadiazol-5-one] | 9.00 |
| CC[C@@H](Oc1ccc(-c2noc(=O)[nH]2)c(OC(F)F)c1)c1sc(-c2ccc(C(F)(F)F)cc2)nc1CN1CCC(C(F)(F)F)CC1 [(+)-45, (+)-3-(2-Difluoromethoxy-4-{(R)-1-[2-(4-trifluoromethyl-phenyl)-4-(4-trifluoromethyl-piperidin-1-ylmethyl)-thiazol-5-yl]-propoxy}-phenyl)-4H-1,2,4-oxadiazol-5-one] | 9.52 |
| CCC(Oc1ccc(-c2noc(=O)[nH]2)c(OC)c1)c1sc(-c2ccc(C(F)(F)F)cc2)nc1CN1CCC(C(F)(F)F)CC1 (racemic) [Example 42, 3-(2-Methoxy-4-{1-[2-(4-trifluoromethyl-phenyl)-4-(4-trifluoromethyl-piperidin-1-ylmethyl)-thiazol-5-yl]-propoxy}-phenyl)-4H-1,2,4-oxadiazol-5-one] | 8.10 |
| Cc1nc(-c2ccc(C(F)(F)F)cc2)sc1C(OCc1ccc(-c2noc(=O)[nH]2)cc1)C(F)(F)C1CC1 (racemic) [Example 32, 3-(4-{2-Cyclopropyl-2,2-difluoro-1-[4-methyl-2-(4-trifluoromethyl-phenyl)-thiazol-5-yl]-ethoxymethyl}-phenyl)-4H-[1,2,4]oxadiazol-5-one] | 6.90 |
| Cc1nc(-c2ccc(C(F)(F)F)cc2)sc1C(OCc1ccc(-c2noc(=O)[nH]2)c(F)c1)C(F)(F)F (racemic) [Example 22, 3-(2-Fluoro-4-{2,2,2-trifluoro-1-[4-methyl-2-(4-trifluoromethyl-phenyl)-thiazol-5-yl]-ethoxymethyl}-phenyl)-4H-[1,2,4]oxadiazol-5-one] | 7.77 |
| Cc1nc(-c2ccc(C(F)(F)F)cc2)sc1C(OCc1ccc(-c2noc(=O)[nH]2)c2cccnc12)C(F)(F)F (racemic) [Example 25, 3-(8-{2,2,2-Trifluoro-1-[4-methyl-2-(4-trifluoromethyl-phenyl)-thiazol-5-yl]-ethoxymethyl}-quinolin-5-yl)-4H-[1,2,4]oxadiazol-5-one] | 8.52 |
| Cc1nc(-c2ccc(C(F)(F)F)cc2)sc1C(OCc1ccc(-c2noc(=O)[nH]2)c(Cl)n1)C(F)(F)F (racemic) [Example 27, 3-(2-Chloro-6-{2,2,2-trifluoro-1-[4-methyl-2-(4-trifluoromethyl-phenyl)-thiazol-5-yl]-ethoxymethyl}-pyridin-3-yl)-4H-[1,2,4]oxadiazol-5-one] | 7.77 |
| CCC(Oc1ccc(-c2noc(=O)[nH]2)c(OCC(F)(F)F)c1)c1sc(-c2ccc(C(F)(F)F)cc2)nc1C (racemic) [Example 48, 3-[4-{1-[4-Methyl-2-(4-trifluoromethyl-phenyl)-thiazol-5-yl]-propoxy}-2-(2,2,2-trifluoro-ethoxy)-phenyl]-4H-1,2,4-oxadiazol-5-one] | 9.00 |
